The nature of this test: structure-activity relationship for anti-inflammatory activity (FIG. 3). The settings on record: SAR results. The source says: The loss or modification of the 5-methoxy results in reduced efficacy in DOx/2Cx compounds.
We determined that DOx/2Cx structures with a modified or missing 5-methoxy have reduced anti-inflammatory activity (FIG. 3). […] Without wishing to be bound by theory, the 5-methoxy of the DOx/2Cx compounds can engage residues in the binding pocket similar to those that engage the 4-OH of tryptamines, although the residues engaged by tryptamines have not been elucidated because the crystal structure of a tryptamine in the 5-HT2A receptor has not yet been published. […] Thus, without wishing to be bound by theory, a water molecule also must be present there to form a hydrogen bond bridge from the oxygen to N343.
The SAR results as shown in FIG. 3 are consistent with engagement of TM6 N343 by the 5-methoxy or 4-OH of DOx/2Cx or tryptamines, respectively, through a hydrogen bond bridge with a water molecule to produce the conformational change to recruit anti-inflammatory effectors to the activated receptor.

On to `CN(C)CCc1c[nH]c2ccccc12` [N,N-DMT, N,N-dimethyltryptamine], for which the anti-inflammatory efficacy/activity result is recorded as “complete loss of efficacy”.

The record behind these values is patent US20240327347A1, “COMPOUNDS AND METHODS FOR TREATING 5-HT2 […]” (Board of Supervisors of Louisiana State University and …, priority 2021, published 2024).
